Measured values as given in US20260167659A1, “STING AGONISTS” (LIGACHEM BIOSCIENCES INC., priority 2022, published 2026).

Columns and labels:
[1] = Normal cell cytotoxicity in PBMCs, CellTiter-Glo; format: cell-based; settings: human, read-out: In vitro cell cytotoxicity in PBMCs CC50
Procedure: PBMCs were also purchased from […]™ (#700025.2). The cells (8.0×10^4 cells per well) were seeded in a flat-bottomed 96-well plate in RPMI 1640 medium (Gibco, #22400097) with 10% heat-inactivated FBS and 1× Antibiotic-Antimycotic (Gibco, #15240062) and rested for 24 hours at 37° C. […] After 72 hours, the cell viability was measured using CellTiter-Glo Luminescent Cell Viability Assay (Promega, #G7573) according to the manufacture's instruction. The signal was detected using an EnVision Xcite multilabel reader and data were analyzed using GraphPad Prism 8 software.
To verify the effect of the STING agonist compounds in normal cell cytotoxicity, the PBMCs were treated with the STING agonist compounds for 3 days and measured the percentage of cell death.

hSTING H232 variant = target: T1, hSTING H232 variant (Homo sapiens, UniProt Q86WV6); assay: STING activation, THP1-Dual IRF3 reporter assay, hSTING-H232 cells; format: cell-based; settings: IRF3 luciferase reporter, 24 hours, read-out: STING activity using hSTING-H232 cells, H232 EC50
T1 construct: host or cells: THP1-Dual cells (human monocytes) with knocked-in hSTING H232
Procedure: (§1) To assess potency of STING agonist compounds described herein, THP1-Dual™ Cells (NF—KB-SEAP and IRF-Lucia luciferase reporter monocytes, InvivoGen) were used. The reporter cells were knocked-in either of hSTING-WT (R232, #thpd-r232), HAQ variant (#thpd-nfis), or H232 variant (#thpd-h232). All cells were cultured at 37° C. in a humidified incubator at 5% CO2 and maintained in RPMI 1640 medium (Gibco, #22400097) supplemented with 10% heat-inactivated FBS and 1×Pen-Strep (Gibco, #15140122). To measure STING agonist-mediated IRF3 activity, the cells (9.0×10^4 cells per well) were seeded in a flat-bottomed 96-well plate. The next day, the cells were treated with compounds in a serial dilution for 24 hours. Subsequently, 20 μL of the cell culture supernatant and 50 μL of the QUANTI-Luc™ reagent (InvivoGen, #rep-qlc) were mixed in a 96-well white plate and then, luciferase activity was measured using an EnVision Xcite multilabel reader. The data were analyzed using Prism8 software (4-parameter).
(§2) The potency of STING agonist compounds was evaluated by the activation of Type I Interferon pathway using THP-1 IRF3 reporter assay.

hSTING HAQ variant = target: T2, hSTING HAQ variant (Homo sapiens, UniProt Q86WV6, G230A/H232R/R293Q/R71H); assay: STING activation, THP1-Dual IRF3 reporter assay, hSTING-HAQ cells; format: cell-based; settings: IRF3 luciferase reporter, 24 hours, read-out: STING activity using hSTING-HAQ cells, HAQ EC50
T2 construct: host or cells: THP1-Dual cells (human monocytes)
Procedure: as §1, §2

[2] = Normal cell cytotoxicity in CD34+ HSC, CellTiter-Glo; format: cell-based; settings: human, CD34+ hematopoietic stem cells (HSCs), read-out: In vitro cell cytotoxicity in CD34+ HSC CC50
Procedure: The CD34^+ hematopoietic stem cells (HSCs) were purchased from […]™ (#70002.3). The cells (2×10^4 cells per well) were cultured in StemSpan™ SFEM II medium supplemented with StemSpan™ CD34+ Expansion Supplement (#02691) in a 6-well plate at 37° C. for 7 days. On day 3 or 4, an equal volume of fresh complete medium was added into the cell culture. On day 7, the cells (4×10^4 cells per well) were seeded in a 96-well white plate and rested for 24 hours in the same condition.
After 72 hours, the cell viability was measured using CellTiter-Glo Luminescent Cell Viability Assay (Promega, #G7573) according to the manufacture's instruction. The signal was detected using an EnVision Xcite multilabel reader and data were analyzed using GraphPad Prism 8 software.

human STING = target: T3, human STING (Homo sapiens, UniProt Q86WV6, H232R); assay: Direct STING binding, HUMAN STING WT BINDING KIT (Cisbio); settings: direct binding to human STING WT protein in vitro; read-out: Binding potency EC50
T3 construct: purchased Cisbio 64BDSTGPEG
From the text: Additionally, for analysis of direct binding potency of STING agonist compounds described herein to human STING, HUMAN STING WT BINDING KIT (Cisbio, #64BDSTGPEG) was used according to the manufacture's instruction.

hSTING-WT (R232) = target: T4, hSTING-WT (R232) (Homo sapiens, UniProt Q86WV6, H232R); assay: STING activation, THP1-Dual IRF3 reporter assay, hSTING-R232 cells; format: cell-based; settings: IRF3 luciferase reporter, 24 hours, read-out: STING activity using hSTING-R232 cells EC50
T4 construct: host or cells: THP1-Dual cells (human monocytes) with knocked-in hSTING R232
Procedure: as §1, §2

[3] = Plasma pharmacokinetics in naive Balb/C mouse, LC-MS/MS; format: in vivo; settings: 1.5 mg/kg single IV; for AUC∞, norm / Cmax, norm: n = 3, dose-normalised; for AUC(0-inf) / AUC(0-t) / C0 / Cmax / clearance / half-life / Vd: female; for AUC(0-inf) / AUC(0-t) / C0 / Cmax: n = 3, plasma; for clearance / half-life / Vd: plasma; for clearance / half-life: n = 3; for Vd: n = 3, read-out: VSS
Procedure: For in vivo evaluation of STING agonist compounds described herein in naïve Balb/C mouse, single doses of STING agonist compounds were given at 1.5 mg/kg intravenously into female BALB/c mice (Orientbio, South Korea) at 6-8 weeks of age. Pharmacokinetics were studied following injection of the STING agonist compounds into Balb/C mice. Plasma samples were taken at various time points and stored frozen for analysis. The plasma concentrations of the STING agonist compounds at the indicated time points were measured using a LC-MS/MS analysis method.
Briefly, 250 μL of acetonitrile (ACN) solution was added in both 50 μL of sample and 50 μL of plasma containing 10 nM Dextromethorphan (internal standard), and the solutions were mixed vigorously using a vortex mixer for 5 minutes. The samples were then spun down at 14,000 rpm, 4° C. for 5 minutes. 100 μL of supernatants were combined with 100 μL of mobile phase A (0.1% formic acid in water with 5% ACN) and mixed thoroughly. The samples were measured for the STING agonist compounds using a LC-MS/MS (Nexera LC40 (SHIMADZU) and QTRAP4500 (SCIEX)).

T2 sequence (Q86WV6 whole entry R71H/G230A/H232R/R293Q): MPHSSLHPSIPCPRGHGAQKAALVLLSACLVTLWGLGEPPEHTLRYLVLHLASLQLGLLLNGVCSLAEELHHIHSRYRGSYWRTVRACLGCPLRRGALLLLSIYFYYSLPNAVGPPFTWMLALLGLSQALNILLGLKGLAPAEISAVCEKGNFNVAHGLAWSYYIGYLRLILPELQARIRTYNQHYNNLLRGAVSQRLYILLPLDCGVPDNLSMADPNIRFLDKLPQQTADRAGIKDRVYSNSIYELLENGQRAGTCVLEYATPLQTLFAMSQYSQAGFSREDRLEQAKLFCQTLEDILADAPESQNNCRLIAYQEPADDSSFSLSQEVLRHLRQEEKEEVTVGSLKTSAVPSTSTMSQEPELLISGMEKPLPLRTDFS
T3 sequence (Q86WV6 whole entry H232R): as the sequence (Q86WV6 whole entry R71H/G230A/H232R/R293Q) above, with H71R, A230G, Q293R counted along it
T4 sequence (Q86WV6 whole entry H232R): as the sequence (Q86WV6 whole entry R71H/G230A/H232R/R293Q) above, with H71R, A230G, Q293R counted along it

Row | SMILES | CC50 at 72 h [1] | EC50 (hSTING H232 variant) | EC50 (hSTING HAQ variant) | CC50 at 72 h [2] | EC50 (human STING) | EC50 (hSTING-WT (R232)) | AUC∞, norm [3] | Cmax, norm [3] | AUC(0-inf) [3] | AUC(0-t) [3] | C0 [3] | Cmax [3] | clearance [3] | half-life [3] | Vd [3]
1 | CCn1nc(C)cc1C(=O)Nc1nc2cc(C(N)=O)cc(OC)c2n1C/C=C/Cn1c(NC(=O)c2cc(C)nn2CC)nc2cc(C(N)=O)cc(OC/C=C/CN3CCCN3C(=O)OCc3ccc(O[C@@H]4O[C@H](C(=O)O)[C@@H](O)[C@H](O)[C@H]4O)c(C(=O)NCCOCCOCCN(C)C)c3)c21 [Compound 424] | 147 nM | 117 nM | 517 nM | 30.6 nM | 1.6 nM | 72 nM | – | – | – | – | – | – | – | – | –
2 | CCn1nc(C)cc1C(=O)Nc1nc2cc(C(N)=O)cc(OC)c2n1C/C=C/Cn1c(NC(=O)c2cc(C)nn2CC)nc2cc(C(N)=O)cc(OC/C=C/Cn3cc(NC(=O)OCc4ccc(O[C@@H]5O[C@H](C(=O)O)[C@@H](O)[C@H](O)[C@H]5O)c(C(=O)NCCC(=O)O)c4)cn3)c21 [Compound 281] | 127 nM | 96.7 nM | 108 nM | – | – | 39.2 nM | 9.89 ± 0.90 kg·h/L | 4.11 ± 0.28 kg/L | 14800 ± 1340 ng·h/mL | 14800 ± 1350 ng·h/mL | 6500 ± 490 ng/mL | 6160 ± 420 ng/mL | 1.67 mL/min/kg | 168 ± 16.2 min | 0.32 ± 0.03 L/kg
3 | CCn1nc(C)cc1C(=O)Nc1nc2cc(C(N)=O)cc(OC/C=C/Cn3cc(NC(=O)OCc4ccc(O[C@@H]5O[C@H](C(=O)O)[C@@H](O)[C@H](O)[C@H]5O)c(C(=O)NCCOCCOCCO[C@@H]5O[C@H](C(=O)O)[C@@H](O)[C@H](O)[C@H]5O)c4)cn3)c2n1C/C=C/Cn1c(NC(=O)c2cc(C)nn2CC)nc2cc(C(N)=O)cc(OCCCC(=O)O)c21 [Compound 396] | – | – | – | 156 nM | – | 240 nM | – | – | – | – | – | – | – | – | –
4 | CCn1nc(C)cc1C(=O)Nc1nc2cc(C(N)=O)cc(OC)c2n1C/C=C/Cn1c(NC(=O)c2cc(C)nn2CC)nc2cc(C(N)=O)cc(OCCCN3CCOCC3)c21 [Comparative #1, reference compound] | 3.34 nM | – | – | 2.1 nM | – | – | 0.66 ± 0.07 kg·h/L | 1.94 ± 0.30 kg/L | 990 ± 100 ng·h/mL | 980 ± 100 ng·h/mL | 4630 ± 860 ng/mL | 2910 ± 450 ng/mL | 25.5 mL/min/kg | 54.6 ± 2.4 min | 0.7 ± 0.15 L/kg
5 | CCc1nc(C)oc1C(=O)Nc1nc2cc(C(N)=O)cnc2n1C/C=C/Cn1c(NC(=O)c2oc(C)nc2CC)nc2cc(C(N)=O)cc(OCCCO)c21 [Comparative #2, reference compound] | 6.28 nM | 36.6 nM | 213 nM | – | 0.13 nM | 213 nM | 0.05 ± 0.01 kg·h/L | 0.16 ± 0.02 kg/L | 80 ± 10 ng·h/mL | 70 ± 10 ng·h/mL | 380 ± 50 ng/mL | 240 ± 30 ng/mL | 328 mL/min/kg | 12 ± 1.8 min | 5.1 ± 1.01 L/kg
6 | CCn1nc(C)cc1C(=O)Nc1nc2cc(C(N)=O)cc(OC)c2n1C/C=C/Cn1c(NC(=O)c2cc(C)nn2CC)nc2cc(C(N)=O)cc(OC/C=C/CN3CCN(C(=O)OCc4ccc(O[C@@H]5O[C@H](C(=O)O)[C@@H](O)[C@H](O)[C@H]5O)c(C(=O)NCCOCCOCCN(C)C)c4)CC3=O)c21 [Compound 309] | 44.3 nM | 70.4 nM | 52 nM | – | 0.4 nM | 31.2 nM | – | – | – | – | – | – | – | – | –
7 | CCn1nc(C)cc1C(=O)Nc1nc2cc(C(N)=O)cc(OC)c2n1C/C=C/Cn1c(NC(=O)c2cc(C)nn2CC)nc2cc(C(N)=O)cc(OC/C=C/CN3CCCN3C(=O)OCc3ccc(O[C@@H]4O[C@H](C(=O)O)[C@@H](O)[C@H](O)[C@H]4O)c(C(=O)NCCOCCOCCO)c3)c21 [Compound 422] | 207 nM | 119 nM | 477 nM | 32.1 nM | 0.92 nM | 45 nM | – | – | – | – | – | – | – | – | –
8 | CCn1nc(C)cc1C(=O)Nc1nc2cc(C(N)=O)cc(OC)c2n1C/C=C/Cn1c(NC(=O)c2cc(C)nn2CC)nc2cc(C(N)=O)cc(OC/C=C/CN3CCN(C(=O)OCc4ccc(O[C@@H]5O[C@H](C(=O)O)[C@@H](O)[C@H](O)[C@H]5O)c(C(=O)NCCOCCOCCO)c4)CC3=O)c21 [Compound 302] | 59.2 nM | 96.6 nM | 83.5 nM | 21.5 nM | 0.38 nM | 46.7 nM | – | – | – | – | – | – | – | – | –
9 | CCn1nc(C)cc1C(=O)Nc1nc2cc(C(N)=O)cc(NC/C=C/Cn3cc(N(CCC(=O)O)C(=O)OCc4ccc(O[C@@H]5O[C@H](C(=O)O)[C@@H](O)[C@H](O)[C@H]5O)c(C(=O)NCCOCCOCCN(C)C)c4)cn3)c2n1C/C=C/Cn1c(NC(=O)c2cc(C)nn2CC)nc2cc(C(N)=O)cc(OC)c21 [Compound 363] | – | – | – | 86.1 nM | 0.8 nM | 403 nM | – | – | – | – | – | – | – | – | –
